What was measured:
[1] = test system: Human corneal epithelial cells; assay: BrdU incorporation cell proliferation assay in BAK-exposed corneal epithelial cells; type: cell-based
Description: (§1) Human corneal epithelial cells at approximately 80% confluence were treated with 0%, 0.001%, 0.01%, or 0.1% BAK for 15 minutes. After 3 and 24 hours of recovery in culture medium, cell proliferation was measured using a calorimetric BrdU incorporation assay. Apoptosis was measured using a calorimetric annexin-based cell death assay. […] To further assess the ability of Tb4 to prevent apoptosis, corneal epithelial cells were treated with 0.01% BAK±Tβ4 over a 5 day time course.

[2] = test system: Human corneal epithelial cells; assay: annexin-based cell death (apoptosis) assay in BAK-exposed corneal epithelial cells
Description: as §1

[3] = 0.001%, 0.01% or 0.1% BAK for 15 minutes, 3 and 24 hours recovery
[4] = 1 mcg/ml Tβ4, BAK-treated cells, 3 and 24 hour time points

Row | Substance | corneal epithelial cell proliferation compared to control [1, 3] | apoptosis compared to control [2, 3] | cell proliferation of BAK-treated cells in presence of Tβ4 [1, 4] | BAK-initiated epithelial cell apoptosis ([2]; 0.01% BAK ± Tβ4, longer times in culture (2 to 5 days)) | apoptosis of BAK-treated cells in presence of Tβ4 [2, 4] | apoptosis compared to cells cultured in medium alone ([2]; 5 days in culture, no BAK comparison (medium alone))
1 | benzalkonium chloride [BAK, reference compound] | inhibited | increased | – | – | – | –
2 | Thymosin beta 4 (SDKPDMAEIEKFDKSKLKKTETQEKNPLPSKETIEQEKQAGES; Thymosin beta-4; UniProt P62328 2-44, looked up) [Tβ4] | – | – | not promoted | significantly inhibited | not inhibited | decreased apoptosis
